Experimental data: patent US20110263594A1, “NOVEL TRIAZOLO(4,3-A)PYRIDINE DERIVATIVES, PROCESS FOR THE PREPARATION THEREOF, USE THEREOF AS MEDICAMENTS, PHARMACEUTICAL COMPOSITIONS AND NOVEL USE, IN PARTICULAR AS MET INHIBITORS” (SANOFI-AVENTIS, priority 2008, published 2011)
Structures can show the parent of a compound that is named as a salt.

Assays:
MET [1] = target: T1, MET (Homo sapiens, UniProt P08581); assay: Test A: HTRF MET assay in 96-well format; type: biochemical; design: The His-Tev-MET (956-1390) recombinant DNA in pFastBac (Invitrogen) is transfected into insect cells; His-Tev (histidine tag with TEV cleavage site) (N, cleaved yes); made in house; host or cells: SF21 insect cells (baculovirus, pFastBac); conditions: MET 5 nM, 10 μM ATP, poly-(GAT)
Experimental: The His-Tev-MET (956-1390) recombinant DNA in pFastBac (Invitrogen) is transfected into insect cells and, after several viral amplification steps, the final baculovirus stock is tested for the expression of the protein of interest.
After infection for 72 h at 27° C. with the recombinant virus, SF21 cell cultures are harvested by centrifugation and the cell pellets are stored at −80° C.
The cell pellets are resuspended in the lysis buffer (buffer A [50 mM HEPES, pH 7.5, 250 mM NaCl, 10% glycerol, 1 mM TECP]; +cocktail of protease inhibitors, Roche Diagnostics, without EDTA, ref 1873580), stirred at 4° C. until the mixture is homogeneous, and then lysed mechanically using a “Dounce” type apparatus.
After centrifugation, the lysis supernatant is incubated for 2 h at 4° C. with nickel chelate resin (His-Trap 6 Fast Flow™, GE HealthCare). After washing with 20 volumes of buffer A, the suspension is packed into a column, and the proteins are eluted with a gradient of buffer B (buffer A+290 mM imidazole).
The fractions containing the protein of interest, for the purpose of electrophoretic analysis (SDS PAGE), are combined, concentrated by ultrafiltration (10 kDa cut-off) and injected onto an exclusion chromatography column (Superdex™ 200, GE HealthCare) equilibrated in buffer A.
After enzymatic cleavage of the histidine tag, the protein is reinjected onto a new IMAC nickel chelate chromatography column (His-Trap 6 Fast Flow™, GE HealthCare) equilibrated in buffer A. The fractions eluted with a gradient of buffer B and containing the protein of interest after electrophoresis (SDS PAGE) are finally combined and stored at −80° C.
For the production of autophosphorylated protein, the previous fractions are incubated for 1 h at ambient temperature after the addition of 2 mM ATP, 2 mM MgCl2 and 4 mM Na3VO4. After the reaction has been stopped with 5 mM of EDTA, the reaction mixture is injected onto a HiPrep desalifying column (GE HealthCare) pre-equilibrated in buffer A+4 mM Na3VO4, and the fractions containing the protein of interest (SDS PAGE analysis) are combined and stored at −80° C. The degree of phosphorylation is verified by mass spectrometry (LC-MS) and by peptide mapping.
MET at a final concentration of 5 nM is incubated in a final volume of 50 μl of enzymatic reaction in the presence of the test molecule (for a final concentration range of from 0.17 nM to 10 μM, 3% DMSO final concentration) in 10 mM MOPS buffer, pH 7.4, 1 mM DTT, 0.01% Tween 20. The reaction is initiated with the substrate solution to obtain final concentrations of 1 μg/ml poly-(GAT), 10 μM ATP and 5 mM MgCl2. After incubation for 10 min at ambient temperature, the reaction is stopped with a 30 μl mix so as to obtain a final solution of 50 mM Hepes, pH 7.5, 500 mM potassium fluoride, 0.1% BSA and 133 mM EDTA in the presence of 80 ng of streptavidin 61SAXLB Cis-Bio Int. and 18 ng of anti-phosphotyrosine Mab PT66-Europium Cryptate per well. After incubation for 2 hours at ambient temperature, the reading is taken at 2 wavelengths, 620 nm and 665 nm, on a reader for the TRACE/HTRF technique, and the % inhibition is calculated from the 665/620 ratios.
Target sequence in this assay (P08581 956-1390): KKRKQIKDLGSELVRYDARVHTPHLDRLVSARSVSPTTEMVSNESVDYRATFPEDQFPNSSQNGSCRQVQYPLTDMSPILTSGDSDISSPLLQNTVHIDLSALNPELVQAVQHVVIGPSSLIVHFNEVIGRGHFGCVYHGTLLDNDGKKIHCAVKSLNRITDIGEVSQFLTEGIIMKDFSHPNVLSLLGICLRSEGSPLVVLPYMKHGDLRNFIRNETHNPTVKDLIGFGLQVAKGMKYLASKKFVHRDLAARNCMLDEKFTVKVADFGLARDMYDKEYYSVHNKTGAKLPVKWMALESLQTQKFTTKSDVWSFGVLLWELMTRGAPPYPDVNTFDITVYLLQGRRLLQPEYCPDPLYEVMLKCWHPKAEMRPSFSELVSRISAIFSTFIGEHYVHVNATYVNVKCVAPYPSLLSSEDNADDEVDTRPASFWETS

[2] = test system: HCT116 cells and MKN45 cells; assay: Test C: measurement of cell proliferation by 14C-thymidine pulse; type: cell-based; conditions: 14C-thymidine incorporation, 96 h of treatment; cell line not given
Experimental: The cells are seeded into Cytostar 96-well plates in 180 μl for 4 hours at 37° C. and 5% CO2: HCT116 cells in a proportion of 2500 cells per well in DMEM medium+10% foetal calf serum+1% L-glutamine, and MKN45 cells in a proportion of 7500 cells per well in RPMI medium+10% foetal calf serum+1% L-glutamine. After these 4 hours of incubation, the products are added in 10 μl as a […] concentrated solution according to the dilution method mentioned for the ELISA. The products are tested at 10 concentrations in duplicate from 10 000 nM to 0.3 nM with an increment of 3.
After treatment for 72 h, 10 μl of ^14C-thymidine at 10 μCi/ml are added so as to obtain 0.1 μCi per well. The ^14C-thymidine incorporation is measured on a Micro-Beta machine (Perkin-Elmer) after 24 hours of pulse and 96 h of treatment.
All the steps of the assay are automated on BIOMEK 2000 or TECAN stations.

MET [3] = target: T1, MET; assay: Test B: inhibition of the autophosphorylation of MET, ELISA technique (pppY1230,1234,1235) in MKN45 cells; type: cell-based; design: endogenous in cells; host or cells: MKN45 cells; conditions: 1 h treatment, phosphoMET ELISA
Experimental: B) Test B: Inhibition of the autophosphorylation of MET; ELISA technique (pppY1230,1234,1235) a) Cell lysates: MKN45 cells are seeded into 96-well plates (cell coat BD polylysine) at 20 000 cells/well in 200 μl in RPMI medium+10% FCS+1% L-glutamine. They are left to adhere for 24 hours in an incubator.
The cells are treated the day after seeding with the products at 6 concentrations, in duplicate, for 1 h. At least 3 control wells are treated with the same final amount of DMSO.
Product dilution: Stock at 10 mM in pure DMSO—range from 10 mM to 30 μM with an increment of 3 in pure DMSO—intermediate dilutions to 1/50 in culture medium and then removal of 10 μl added directly to the cells (200 μl): final range of 10 000 to 30 nM.
At the end of the incubation, the supernatant is carefully removed and rinsing is performed with 200 μl of PBS. Next, 100 μl of lysis buffer are placed directly in the wells on ice and incubated at 4° C. for 30 minutes. Lysis buffer: 10 mM Tris HCl, pH 7.4, 100 mM NaCl, 1 mM EDTA, 1 mM EGTA, 1% Triton X-100, 10% glycerol, 0.1% SDS, 0.5% deoxycholate, 20 mM NaF, 2 mM Na3VO4, 1 mM PMSF and cocktail of antiproteases.
The 100 μl of lysates are transferred into a V-bottomed polypropylene plate and the ELISA is performed immediately, or the plate is frozen at −80° C.
70 μl of kit dilution buffer+30 μL of cell lysate, or 30 μl of lysis buffer for the blanks, are added to each well of the kit plate. Incubation is carried out for 2 h with gentle agitation at ambient temperature.
The wells are rinsed 4 times with 400 μl of kit washing buffer. Incubation is carried out with 100 μl of anti-phospho MET antibody for 1 hour at ambient temperature.
The wells are rinsed 4 times with 400 μl of kit washing buffer. Incubation is carried out with 100 μl of anti-rabbit HRP antibody for 30 minutes at ambient temperature (except for the wells of chromogen alone).
The wells are rinsed 4 times with 400 μl of kit washing buffer. 100 μL of chromogen are introduced and incubation is carried out for 30 minutes in the dark at ambient temperature.
The reaction is stopped with 100 μl of stop solution. The plate is read without delay at […], 0.1 second on a Wallac Victor plate reader.
Target sequence in this assay (P08581 25-1390): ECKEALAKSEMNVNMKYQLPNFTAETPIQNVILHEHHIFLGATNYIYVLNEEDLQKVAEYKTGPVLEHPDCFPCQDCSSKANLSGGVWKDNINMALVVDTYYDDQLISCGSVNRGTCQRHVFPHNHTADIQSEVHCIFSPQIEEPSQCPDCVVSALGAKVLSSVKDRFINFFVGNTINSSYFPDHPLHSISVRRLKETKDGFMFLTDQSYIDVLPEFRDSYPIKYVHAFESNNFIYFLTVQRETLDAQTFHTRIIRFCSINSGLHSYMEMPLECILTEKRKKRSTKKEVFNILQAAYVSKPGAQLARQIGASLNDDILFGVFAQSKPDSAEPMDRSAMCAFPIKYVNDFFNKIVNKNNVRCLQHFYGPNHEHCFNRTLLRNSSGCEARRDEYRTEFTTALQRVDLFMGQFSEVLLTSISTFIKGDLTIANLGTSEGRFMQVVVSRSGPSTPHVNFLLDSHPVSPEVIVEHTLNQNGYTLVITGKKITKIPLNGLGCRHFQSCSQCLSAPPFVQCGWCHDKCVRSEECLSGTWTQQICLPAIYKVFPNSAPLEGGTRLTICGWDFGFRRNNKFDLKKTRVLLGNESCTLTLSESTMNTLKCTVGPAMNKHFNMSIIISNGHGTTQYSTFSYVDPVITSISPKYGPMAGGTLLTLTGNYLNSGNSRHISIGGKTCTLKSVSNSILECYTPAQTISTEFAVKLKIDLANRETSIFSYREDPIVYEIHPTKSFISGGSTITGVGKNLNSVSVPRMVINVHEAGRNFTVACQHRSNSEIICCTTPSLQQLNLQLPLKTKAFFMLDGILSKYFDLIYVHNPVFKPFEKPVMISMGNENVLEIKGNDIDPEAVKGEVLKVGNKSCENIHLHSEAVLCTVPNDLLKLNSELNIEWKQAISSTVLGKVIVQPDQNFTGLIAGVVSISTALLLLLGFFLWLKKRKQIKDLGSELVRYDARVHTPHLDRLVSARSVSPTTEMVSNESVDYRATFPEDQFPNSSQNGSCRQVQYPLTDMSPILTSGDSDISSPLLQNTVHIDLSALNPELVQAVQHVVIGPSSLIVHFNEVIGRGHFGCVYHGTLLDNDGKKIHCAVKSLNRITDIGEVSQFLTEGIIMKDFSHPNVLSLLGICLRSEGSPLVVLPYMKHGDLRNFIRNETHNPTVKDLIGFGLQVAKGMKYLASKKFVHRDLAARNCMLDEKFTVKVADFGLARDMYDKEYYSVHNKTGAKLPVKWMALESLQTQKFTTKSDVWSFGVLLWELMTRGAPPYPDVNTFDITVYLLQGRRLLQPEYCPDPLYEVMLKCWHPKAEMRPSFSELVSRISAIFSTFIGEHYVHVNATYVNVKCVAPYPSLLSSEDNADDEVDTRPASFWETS

| melting point | IC50 (MET [1]) | IC50 [2] | IC50 (MET [3]) | SMILES |
| --- | --- | --- | --- | --- |
| > 260 °C | – | – | – | O=C(Nc1nc2ccc(Sc3nnc4ccc(-c5cnn(C6CCNCC6)c5)cn34)cc2s1)C1CC1 (as salt: hydrochloride) [Example 16, N-(6-{[6-(1-piperidin-4-yl-1H-pyrazol-4-yl)[1,2,4]triazolo[4,3-a]pyridin-3-yl]sulphanyl}-1,3-benzothiazol-2-yl)cyclopropanecarboxamide] |
| – | < 100 nM | < 1000 nM | < 100 nM | Cn1cc(-c2ccc3nnc(Sc4ccc5nc(NC(=O)C6CC6)sc5c4)n3c2)cn1 [Example 10, N-(6-{[6-(1-methyl-1H-pyrazol-4-yl)[1,2,4]triazolo[4,3-a]pyridin-3-yl]sulphanyl}-1,3-benzothiazol-2-yl)cyclopropanecarboxamide] |
| – | < 100 nM | < 1000 nM | < 100 nM | O=C(Nc1nc2ccc(Sc3nnc4ccc(-c5cnn(CCOC6CCCCO6)c5)cn34)cc2s1)C1CC1 (stereo not shown) [Example 14, N-(6-{[6-(1-[2-(tetrahydro-2H-pyran-2-yloxy)ethyl]-1H-pyrazol-4-yl)[1,2,4]triazolo[4,3-a]pyridin-3-yl]sulphanyl}-1,3-benzothiazol-2-yl)cyclopropanecarboxamide] |
| – | < 100 nM | < 1000 nM | < 100 nM | O=C(Nc1nc2ccc(Sc3nnc4ccc(-c5cnn(CCO)c5)cn34)cc2s1)C1CC1 [Example 15, N-(6-{[6-(1-(2-hydroxyethyl)-1H-pyrazol-4-yl)[1,2,4]triazolo[4,3-a]pyridin-3-yl]sulphanyl}-1,3-benzothiazol-2-yl)cyclopropanecarboxamide] |
| – | < 100 nM | < 1000 nM | < 100 nM | O=C(Nc1nc2ccc(Sc3nnc4ccc(-c5cnn(C6CCNCC6)c5)cn34)cc2s1)C1CC1 [Example 16, N-(6-{[6-(1-piperidin-4-yl-1H-pyrazol-4-yl)[1,2,4]triazolo[4,3-a]pyridin-3-yl]sulphanyl}-1,3-benzothiazol-2-yl)cyclopropanecarboxamide] |

Continued, molecule first:

| SMILES | melting point | IC50 (MET [1]) | IC50 [2] | IC50 (MET [3]) |
| --- | --- | --- | --- | --- |
| Nc1nc2ccc(Sc3nnc4ccccn34)cc2s1 [Example 1, 6-([1,2,4]triazolo[4,3-a]pyridin-3-ylsulphanyl)-1,3-benzothiazol-2-amine] | 260 to 266 °C | < 500 nM | – | – |
| O=C(Nc1nc2ccc(Sc3nnc4ccccn34)cc2s1)C1CC1 [Example 2, N-[6-([1,2,4]triazolo[4,3-a]pyridin-3-ylsulphanyl)-1,3-benzothiazol-2-yl]cyclopropanecarboxamide] | 187 to 190 °C | < 100 nM | < 1000 nM | > 500 nM |
| O=C(NCCN1CCOCC1)Nc1nc2ccc(Sc3nnc4ccccn34)cc2s1 [Example 3, 1-[2-(morpholin-4-yl)ethyl]-3-[6-([1,2,4]triazolo[4,3-a]pyridin-3-ylsulphanyl)-1,3-benzothiazol-2-yl]urea] | 204 to 207 °C | < 100 nM | < 1000 nM | < 100 nM |
| CN1CCN(CCNC(=O)Nc2nc3ccc(Sc4nnc5ccccn45)cc3s2)CC1 [Example 4, 1-[2-(4-methylpiperazin-1-yl)ethyl]-3-[6-([1,2,4]triazolo[4,3-a]pyridin-3-ylsulphanyl)-1,3-benzothiazol-2-yl]urea] | 180 to 185 °C | < 100 nM | < 1000 nM | < 100 nM |
| COCCNC(=O)Nc1nc2ccc(Sc3nnc4ccccn34)cc2s1 [Example 5, 1-(2-methoxyethyl)-3-[6-([1,2,4]triazolo[4,3-a]pyridin-3-ylsulphanyl)-1,3-benzothiazol-2-yl]urea] | 252 to 257 °C | < 100 nM | < 1000 nM | < 100 nM |
| Nc1nc2ccc(Sc3nnc4ccc(I)cn34)cc2s1 [Example 6, 6-[(6-iodo[1,2,4]triazolo[4,3-a]pyridin-3-yl)sulphanyl]-1,3-benzothiazol-2-amine] | – | < 100 nM | < 1000 nM | – |
| Nc1nc2ccc(Sc3nnc4ccc(-c5ccc(F)cc5)cn34)cc2s1 [Example 7, 6-{[6-(4-fluorophenyl)[1,2,4]triazolo[4,3-a]pyridin-3-yl]sulphanyl}-1,3-benzothiazol-2-amine] | > 264 °C | < 100 nM | < 1000 nM | < 100 nM |
| O=C(Nc1nc2ccc(Sc3nnc4ccc(-c5ccc(F)cc5)cn34)cc2s1)C1CC1 [Example 8, N-{6-[6-(4-fluorophenyl)[1,2,4]triazolo[4,3-a]pyridin-3-ylsulphanyl]-1,3-benzothiazol-2-yl}cyclopropanecarboxamide] | – | < 100 nM | < 1000 nM | < 100 nM |
| Cn1cc(-c2ccc3nnc(Sc4ccc5nc(N)sc5c4)n3c2)cn1 [Example 9, 6-{[6-(1-methyl-1H-pyrazol-4-yl)[1,2,4]triazolo[4,3-a]pyridin-3-yl]sulphanyl}-1,3-benzothiazol-2-amine] | – | < 100 nM | < 1000 nM | > 500 nM |
